These are literature values, as cited in patent publication US20260297044A1, “INHIBITORS OF SPINSTER HOMOLOG 2 (SPNS2) FOR USE IN THERAPY” (University of Virginia Patent Foundation, priority 2023, published 2026).

The subject of this data set is Spns2. The note with it: two models of kidney fibrosis, mice.

The structures appear in SMILES notation.

Consider `CCCCCCCCCCc1ccc(-c2noc(CCCN)n2)cc1` [SLF1081851], for which the fibrosis entry was “significantly less fibrosis” and the “function of the injured kidney” value is “improved function of the injured kidney”.
